Assay results from ChEMBL document CHEMBL1140893, “Cancer preventive agents. Part 8: Chemopreventive effects of stevioside and related compounds” (Bioorg Med Chem, 2009).

Key:
Mus musculus [1] = experiment: Inhibition of DMBA-induced/TPA-promoted carcinogenesis in mouse assessed as reduction in skin papillomas bearing mouse at 85 nmol administered 1 hr before TPA treatment measured after 15 weeks; format: functional; parameters: scale not given: the % may be the effect or the level left
[2] = Inhibition of TPA-induced EBV-early antigen activation in human Raji cells after 48hrs by indirect immunofluorescence technique; format: cell-based, human gammaherpesvirus 4
Mus musculus [3] = experiment: Inhibition of DMBA-induced/TPA-promoted carcinogenesis in mouse assessed as reduction in skin papillomas bearing mouse at 85 nmol administered 1 hr before TPA treatment measured after 10 weeks; format: functional; parameters: scale not given: the % may be the effect or the level left
Mus musculus [4] = experiment: Inhibition of DMBA-induced/TPA-promoted carcinogenesis in mouse assessed as reduction in skin papillomas bearing mouse at 85 nmol administered 1 hr before TPA treatment measured after 20 weeks; format: functional, organism-based; parameters: Activity: scale not given: the % may be the effect or the level left
Raji [5] = experiment: Inhibition of TPA-induced EBV-early antigen activation in human Raji cells at 500 mol ratio after 48hrs by indirect immunofluorescence technique relative to control; format: cell-based; parameters: scale not given: the % may be the effect or the level left; conditions: human gammaherpesvirus 4
[6] = Cytotoxicity against human Raji cells assessed as cell viability at 100 mol ratio by trypan blue staining; format: cell-based; conditions: read-out: Activity
[7] = Cytotoxicity against human Raji cells assessed as cell viability at 1000 mol ratio by trypan blue staining; format: cell-based; conditions: read-out: Activity
Mus musculus [8] = experiment: Inhibition of DMBA-induced/TPA-promoted carcinogenesis in mouse assessed as number of skin papillomas per mouse at 85 nmol administered 1 hr before TPA treatment measured after 20 weeks; format: functional
[9] = Cytotoxicity against human Raji cells assessed as cell viability at 10 mol ratio by trypan blue staining; format: cell-based; conditions: read-out: Activity
[10] = Cytotoxicity against human Raji cells assessed as cell viability at 500 mol ratio by trypan blue staining; format: cell-based; conditions: read-out: Activity
Mus musculus [11] = experiment: Inhibition of DMBA-induced/TPA-promoted carcinogenesis in mouse assessed as number of skin papillomas per mouse at 85 nmol administered 1 hr before TPA treatment measured after 15 weeks; format: functional
Raji [12] = experiment: Inhibition of TPA-induced EBV-early antigen activation in human Raji cells at 10 mol ratio after 48hrs by indirect immunofluorescence technique relative to control; format: cell-based; parameters: scale not given: the % may be the effect or the level left; conditions: human gammaherpesvirus 4
Raji [13] = experiment: Inhibition of TPA-induced EBV-early antigen activation in human Raji cells at 100 mol ratio after 48hrs by indirect immunofluorescence technique relative to control; format: cell-based; parameters: scale not given: the % may be the effect or the level left; conditions: human gammaherpesvirus 4
Mus musculus [14] = experiment: Inhibition of DMBA-induced/TPA-promoted carcinogenesis in mouse assessed as number of skin papillomas per mouse at 85 nmol administered 1 hr before TPA treatment measured after 10 weeks; format: functional
Raji [15] = experiment: Inhibition of TPA-induced EBV-early antigen activation in human Raji cells at 1000 mol ratio after 48hrs by indirect immunofluorescence technique relative to control; format: cell-based; parameters: scale not given: the % may be the effect or the level left; conditions: human gammaherpesvirus 4
Mus musculus [16] = experiment: Inhibition of peroxynitrite-induced/TPA-promoted carcinogenesis in Sencar mouse assessed as reduction in skin papillomas bearing mouse at 85 nmol administered 1 hr before TPA treatment measured after 20 weeks; format: functional; parameters: scale not given: the % may be the effect or the level left
Mus musculus [17] = species on record: Mus musculus; experiment: Reduction in peroxynitrite-induced/TPA-promoted number of skin papillomas in Sencar mouse after 20 weeks; format: functional; parameters: scale not given: the % may be the effect or the level left
Mus musculus [18] = experiment: Inhibition of DMBA-induced/TPA-promoted carcinogenesis in mouse assessed as reduction in skin papillomas bearing mouse at 85 nmol administered 1 hr before TPA treatment measured after 9 weeks; format: functional; parameters: scale not given: the % may be the effect or the level left
Mus musculus [19] = experiment: Inhibition of peroxynitrite-induced/TPA-promoted carcinogenesis in Sencar mouse assessed as reduction in skin papillomas bearing mouse at 85 nmol administered 1 hr before TPA treatment measured after 15 weeks; format: functional; parameters: scale not given: the % may be the effect or the level left
Mus musculus [20] = experiment: Inhibition of peroxynitrite-induced/TPA-promoted carcinogenesis in Sencar mouse assessed as number of skin papillomas per mouse at 85 nmol administered 1 hr before TPA treatment measured after 15 weeks; format: functional
Mus musculus [21] = experiment: Inhibition of peroxynitrite-induced/TPA-promoted carcinogenesis in Sencar mouse assessed as number of skin papillomas per mouse at 85 nmol administered 1 hr before TPA treatment measured after 20 weeks; format: functional
Mus musculus [22] = experiment: Inhibition of peroxynitrite-induced/TPA-promoted carcinogenesis in Sencar mouse assessed as number of skin papillomas per mouse at 85 nmol administered 1 hr before TPA treatment measured after 11 weeks; format: functional
Mus musculus [23] = experiment: Inhibition of peroxynitrite-induced/TPA-promoted carcinogenesis in Sencar mouse assessed as reduction in skin papillomas bearing mouse at 85 nmol administered 1 hr before TPA treatment measured after 11 weeks; format: functional; parameters: scale not given: the % may be the effect or the level left
Mus musculus [24] = experiment: Inhibition of peroxynitrite-induced/TPA-promoted carcinogenesis in Sencar mouse assessed as number of skin papillomas per mouse at 85 nmol administered 1 hr before TPA treatment measured after 10 weeks; format: functional
Mus musculus [25] = experiment: Inhibition of peroxynitrite-induced/TPA-promoted carcinogenesis in Sencar mouse assessed as reduction in skin papillomas bearing mouse at 85 nmol administered 1 hr before TPA treatment measured after 10 weeks; format: functional; parameters: scale not given: the % may be the effect or the level left

Structure (SMILES)	Activity (Mus musculus [1])	IC50 [2]	Activity (Mus musculus [3])	Activity (Mus musculus [4])	Activity (Raji [5])	viability at 100 mol ratio [6]	viability at 1000 mol ratio [7]	Activity (Mus musculus [8])	viability at 10 mol ratio [9]	viability at 500 mol ratio [10]	Activity (Mus musculus [11])	Activity (Raji [12])	Activity (Raji [13])	Activity (Mus musculus [14])	Activity (Raji [15])	Activity (Mus musculus [16])	Activity (Mus musculus [17])	Activity (Mus musculus [19])	Activity (Mus musculus [20])	Activity (Mus musculus [21])	other results
CC1(C)[C@@H](O[C@H]2O[C@H](C(=O)O)[C@@H](O)[C@H](O)[C@H]2O[C@@H]2O[C@H](C(=O)O)[C@@H](O)[C@H](O)[C@H]2O)CC[C@]2(C)[C@H]3C(=O)C=C4[C@@H]5C[C@@](C)(C(=O)O)CC[C@]5(C)CC[C@@]4(C)[C@]3(C)CC[C@@H]12 [GLYCYRRHIZIN]	60%	381 mol ratio/32 pmol TPA	50%	94%	36.9%	> 80%	60%	6.2	> 80%	> 80%	4.6	100%	69.2%	2.8	12.5%						
C=C1C[C@@]23CC[C@H]4[C@@](C)(CCC[C@@]4(C)C(=O)O[C@@H]4O[C@H](CO)[C@@H](O)[C@H](O)[C@H]4O)[C@@H]2CC[C@]1(O[C@@H]1O[C@H](CO)[C@@H](O)[C@H](O)[C@H]1O)C3 [RUBUSOSIDE]		450 mol ratio/32 pmol TPA			44.2%	> 80%	60%		> 80%	> 80%		94.2%	76.8%		12.5%						
C=C1C[C@@]23CC[C@H]4[C@@](C)(CCC[C@@]4(C)C(=O)O[C@@H]4O[C@H](CO)[C@@H](O)[C@H](O)[C@H]4O)[C@@H]2CC[C@]1(O[C@@H]1O[C@H](CO)[C@@H](O)[C@H](O)[C@H]1O[C@@H]1O[C@H](CO)[C@@H](O)[C@H](O)[C@H]1O)C3 [STEVIOSIDE]	53%	360 mol ratio/32 pmol TPA		93%	36.9%	> 80%			> 80%	> 80%		89.3%	67.4%		3.2%	87%	45%	53%	3	4.4	Activity (Mus musculus [18]): 20%; Activity (Mus musculus [22]): 2; Activity (Mus musculus [23]): 40%
C=C1C[C@@]23CC[C@H]4[C@@](C)(CCC[C@@]4(C)C(=O)O[C@@H]4O[C@H](CO)[C@@H](O)[C@H](O)[C@H]4O)[C@@H]2CC[C@]1(O[C@@H]1O[C@H](CO)[C@@H](O)[C@H](O[C@@H]2O[C@H](CO)[C@@H](O)[C@H](O)[C@H]2O)[C@H]1O[C@@H]1O[C@@H](C)[C@H](O)[C@@H](O)[C@H]1O)C3 [REBAUDIOSIDE C]						> 80%	60%		> 80%	> 80%											
C=C1C[C@@]23CC[C@H]4[C@@](C)(CCC[C@@]4(C)C(=O)O)[C@@H]2CC[C@]1(O)C3 [STEVIOL]	60%	340 mol ratio/32 pmol TPA	27%	87%	35.6%	> 80%	60%	5.4	> 80%	> 80%	3.7	91.2%	74.1%	1.8	2.1%	93%	44.4%	67%	3.5	4.5	Activity (Mus musculus [24]): 2.3; Activity (Mus musculus [25]): 27%
C[C@@]12CC[C@@H]3[C@@](CC[C@H]4[C@@]3(C)CCC[C@@]4(C)C(=O)O)(CC1=O)C2 [ISOSTEVIOL]	60%	321 mol ratio/32 pmol TPA	20%		34.2%	> 80%		5	> 80%	> 80%	3.6	90.6%	73%	1.8	1.9%	73%	46.2%	53%	2.7	4.3	Activity % (Mus musculus [4]): 87%; Activity (Mus musculus [24]): 1.6; Activity (Mus musculus [23]): 33%
C=C1C[C@@]23CC[C@H]4[C@@](C)(CCC[C@@]4(C)C(=O)O[C@@H]4O[C@H](CO)[C@@H](O)[C@H](O)[C@H]4O)[C@@H]2CC[C@]1(O[C@@H]1O[C@H](C)[C@@H](O)[C@H](O)[C@@H]1O[C@@H]1O[C@H](CO)[C@@H](O)[C@H](O)[C@H]1O)C3 [DULCOSIDE A]					40.9%							92.5%	73%		6.7%						
C=C1C[C@@]23CC[C@H]4[C@@](C)(CCC[C@@]4(C)C(=O)O[C@@H]4O[C@H](CO)[C@@H](O)[C@H](O)[C@H]4O)[C@@H]2CC[C@]1(O[C@@H]1O[C@H](CO)[C@@H](O)[C@H](O[C@@H]2O[C@H](CO)[C@@H](O)[C@H](O)[C@H]2O)[C@H]1O[C@@H]1O[C@H](CO)[C@@H](O)[C@H](O)[C@H]1O)C3 [REBAUDIOSIDE A]						> 80%	60%		> 80%	> 80%											
COc1cc(/C=C/C(=O)CC(=O)/C=C/c2ccc(O)c(OC)c2)ccc1O [CURCUMIN]		331 mol ratio/32 pmol TPA			22.8%	> 80%	60%		> 80%	> 80%		100%	81.7%		0%		45.1%				
